Results as given in US20100298377A1, “NOVEL SUBSTITUTED INDAZOLES, THE PREPARATION THEREOF AND USE OF SAME IN THERAPEUTICS” (SANOFI-AVENTIS, priority 2007, published 2010).

Experiments:
[1] = biological target: T1, Human S6K1 (24-421) T412E protein (Homo sapiens, UniProt P23443, T412E); test: Determination of the IC50 for S6K1 (HTRF substrate phosphorylation test); type: biochemical; settings: S6K1 activated by PDK1, ATP 30 μM
T1 construct: Human S6K1 (24-421) T412E protein; made in house; host or cells: Sf21 insect cells
T1 sequence (P23443 24-421 T412E): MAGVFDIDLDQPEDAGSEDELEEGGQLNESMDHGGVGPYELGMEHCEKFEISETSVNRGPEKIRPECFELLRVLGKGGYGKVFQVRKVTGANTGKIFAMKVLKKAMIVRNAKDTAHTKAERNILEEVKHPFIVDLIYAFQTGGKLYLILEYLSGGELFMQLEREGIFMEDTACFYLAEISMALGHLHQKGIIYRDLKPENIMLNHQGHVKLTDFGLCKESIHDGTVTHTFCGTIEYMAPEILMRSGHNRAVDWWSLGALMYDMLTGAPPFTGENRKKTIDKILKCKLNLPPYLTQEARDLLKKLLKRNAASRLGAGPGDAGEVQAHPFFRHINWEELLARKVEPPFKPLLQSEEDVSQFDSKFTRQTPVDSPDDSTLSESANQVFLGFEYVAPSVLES
Protocol: Determination of the IC50 for S6K1
The inhibitory potential of the compounds for S6K1 is evaluated in an enzymatic test of phosphorylation of substrate in HTRF (Homogenous Time-Resolved Fluorescence) format. Human S6K1 (24-421) T412E protein is expressed in sf21 cells and purified by chromatography on a nickel chelate column. It is activated by PDK1.
The test comprises two steps, both performed at RT. The phosphorylation reaction takes place during the first step and the revelation step is performed during the second. […] The final concentrations of compounds thus obtained during the incubation period range from 10 μM to 0.17 nM and the concentration of enzyme is 2 nM. After incubation for 20 minutes, the reaction is stopped and the revelation initiated by addition of 30 μl of a mixture of streptavidin XL 665 Xlent, ref. 611SAXLB Cis bio international, and a europium cryptate-coupled anti-phospho-GSK3 antibody, ref. 64CUSKAZ Cis bio international, dissolved in the revelation buffer (HEPES/NaOH 166.7 mM, EDTA 221.7 mM, KF 667.7 mM, BSA 0.167%, pH 7.0). The reaction takes place in a black half-well plate ref. 3694 Costar.
A mixture of the reaction medium after each addition of reagent is obtained by agitation for a few minutes at 700-1000 rpm on a Heidolph Titramax 100 machine. The reading is taken on a TECAN Ultra Evolution machine after at least one night and up to 3 nights at 4° C. The reading settings are as follows: excitation wavelength 320 nm, emission wavelengths 620 and 665 nm, lag time 150 μs, integration time 500 μs.
For each point, the ΔF % is calculated as follows:
R(Ratio)=counts665 nm/counts620 nm
The IC50 values are calculated by means of the XLfit4 205 equation.

[2] = tested on: MEF-IGF1 murine fibroblast cells; test: IGF1-dependent proliferation of MEF-IGF1 cells via incorporation of [14C]-thymidine; type: cell-based; settings: Mus musculus, Fibroblast; [14C]-thymidine incorporation, IGF1 stimulated, 72 hours; read-out: IC50 MEF-IGF
Excerpt: a. Study of the IGF1-Dependent Proliferation of MEF-IGF1 Murine Fibroblast Cells Measured via Incorporation of [14C]-Thymidine
This test is based on the incorporation of [^14C]-thymidine into the DNA of the cells for the S phase of the cell cycle during cell division. The cell line used in this test is the MEF/3T3 Tet-Off Clone 18 line obtained by stable transfection of the human receptor IGF1R in murine MEF/3T3 Tet-Off fibroblasts. To measure the IGF1-dependent cell proliferation, the cells were deprived of serum and cultured for 3 days in the serum-free culture medium in the presence of the growth factor IGF1 which stimulates the proliferation of MEF-IGF1 cells.
Test of Incorporation of [^14C]-Thymidine into MEF-IGF1 Cells
On day 1, the cells were inoculated with 7500 cells per well in Cytostar 96-well microplates (Amersham (GE) RPNQ0162) in 200 μl of EMEM medium (EMEM, Biowhittaker, #BE12-662F) containing 10% foetal calf serum (FCS, TET-BD Biosciences Tet System Approved FBS US-Sourced, #8630-1) and 1% PSG (Penicillin-Streptomycin-Glutamine (PSG), Gibco #10378-016), and incubated at 37° C., 5% CO2, for 24 hours. On day 2, the cells were washed in the FCS-free EMEM culture medium containing 1% PSG, and incubated in 170 μl of this serum-free culture medium at 37° C., 5% CO2, for 24 hours. On day 3, the cells were incubated with 10 μl of IGF1 (2 μg/ml of final concentration; recombinant human IGF-1, R & D Systems, #291-G1), 10 μl (0.1 μCi) of [^14C]-Thymidine (NEN NEC-568) plus 10 μl of increasing concentrations of the test molecules, diluted in dimethyl sulfoxide (DMSO, Sigma D2650). The molecules were added in a volume of 10 μl of a 20-fold concentrated solution in a final volume of 200 μl, the final percentage of DMSO being 0.1%. The treated cells were incubated at 37° C., 5% CO2, for 72 hours. The incorporation of [^14C]-Thymidine was quantified in cpm units (counts per minute) by counting the radioactivity 72 hours after the start of the treatment, using a Micro-Beta radioactivity counter (Perkin-Elmer). The tests were performed in duplicate.
i) the mean±s.e.m. of each series of well replicates was calculated;
ii) the background noise is calculated by preparing cell-free, IGF1-free and untreated control wells; this control was performed in 4 replicates. The background noise was removed at each measurement;
iii) the maximum response is given by positive control wells containing cells in the presence of IGF1 but untreated; this control was performed in 4 replicates;
iv) the minimum response is given by negative control wells containing IGF1-free and untreated cells; this control was performed in 4 replicates;
The IC50 values were calculated by […] with the XLfit software (IDBS, UK) using formula 205.

Compound	IC50 [1]	IC50 [2]
O=C(Nc1ccc2[nH]ncc2c1)N[C@@H](c1cc(F)cc(Cl)c1)[C@@H]1CCCCN1 [Ex 3, 1-{(S)-(3-Chloro-5-fluorophenyl)[(2S)-piperid-2-yl]methyl}-3-(1H-indazol-5-yl)urea]	100 to 500 nM	790 nM
O=C(Nc1ccc2[nH]ncc2c1)N[C@@H](c1ccc(Cl)c(Cl)c1)[C@@H]1CCCCN1 [Ex 4, 1-{(S)-(3,4-Dichlorophenyl)[(2S)-piperid-2-yl]methyl}-3-(1H-indazol-5-yl)urea]	100 to 500 nM	500 nM
O=C(Nc1ccc2[nH]ncc2c1)NC(c1cc(F)cc(Cl)c1)C1CCCCN1 (centres unmarked) [Ex 5, 1-[(3-Chloro-5-fluorophenyl)(piperid-2-yl)methyl]-3-(1H-indazol-5-yl)urea]	100 to 500 nM	< 100 nM
CN1CCCCC1C(NC(=O)Nc1ccc2[nH]ncc2c1)c1cc(F)cc(Cl)c1 (centres unmarked) [Ex 11, 1-[(3-Chloro-5-fluorophenyl)(1-methylpiperid-2-yl)methyl]-3-(1H-indazol-5-yl)urea]	500 to 2000 nM	2920 nM
CN1CCCCC1C(NC(=O)Nc1ccc2[nH]nc(-c3ccncc3)c2c1)c1ccccc1 [Ex 13, 1-[(1-Methylpiperid-2-yl)(phenyl)methyl]-3-(3-pyrid-4-yl-1H-indazol-5-yl)urea((S,2S),(R,2R))]	500 to 2000 nM	5120 nM
Cc1n[nH]c2ccc(NC(=O)NC(c3ccccc3)C3CCCCN3C)cc12 [Ex 18, 3-Methyl-5-({[(1-methylpiperid-2-yl)(phenyl)methyl]carbamoyl}amino)-1H-indazole ((S,2S),(R,2R))]	500 to 2000 nM	290 nM
CN1CCCCC1C(NC(=O)Nc1cc(F)c2[nH]ncc2c1)c1ccccc1 [Ex 21, 1-(7-Fluoro-1H-indazol-5-yl)-3-[(1-methylpiperid-2-yl)(phenyl)methyl]urea((S,2S),(R,2R))]	500 to 2000 nM	2820 nM
CN1CCCCC1C(NC(=O)Nc1ccc2[nH]nc(C#Cc3ccc(F)cc3)c2c1)c1ccccc1 [Ex 24, 1-{3-[(4-Fluorophenyl)ethynyl]-1H-indazol-5-yl}-3-[(1-methylpiperid-2-yl)(phenyl)methyl]urea((S,2S),(R,2R))]	100 to 500 nM	860 nM
CN1CCCCC1C(NC(=O)Nc1ccc2[nH]nc(C#Cc3cccnc3)c2c1)c1ccccc1 [Ex 25, 1-[(1-Methylpiperid-2-yl)(phenyl)methyl]-3-[3-(pyrid-3-ylethynyl)-1H-indazol-5-yl]urea((S,2S),(R,2R))]	100 to 500 nM	366 nM
S=C(Nc1ccc2[nH]ncc2c1)N[C@@H](c1ccc(Cl)c(Cl)c1)[C@@H]1CCCCN1 [Ex 31, 1-{(S)-(3,4-Dichlorophenyl)[(2S)-piperid-2-yl]methyl}-3-(1H-indazol-5-yl)thiourea]	100 to 500 nM	1270 nM
O=C(Nc1ccc2[nH]ncc2c1)OC(c1cc(Cl)cc(Cl)c1)C1CCCCN1 [Ex 34, (3,5-Dichlorophenyl)[piperid-2-yl]methyl 1H-indazol-5-ylcarbamate((S,2S),(R,2R))]	500 to 2000 nM	600 nM
O=C(Nc1ccc2[nH]ncc2c1)O[C@@H](c1cc(F)cc(Cl)c1)[C@@H]1CCCCN1 [Ex 35, (S)-(3-Chloro-5-fluorophenyl)[(2S)-piperid-2-yl]methyl 1H-indazol-5-ylcarbamate]	100 to 500 nM	560 nM
CN1CCCCC1C(OC(=O)Nc1ccc2[nH]ncc2c1)c1cc(F)cc(Cl)c1 (centres unmarked) [Ex 36, (3-Chloro-5-fluorophenyl)(1-methylpiperid-2-yl)methyl 1H-indazol-5-ylcarbamate]	500 to 2000 nM	770 nM
O=C(Nc1ccc2[nH]ncc2c1)O[C@H](c1ccc(Cl)c(Cl)c1)[C@H]1CCCCN1 [Ex 37, (R)-(3,4-Dichlorophenyl)[(2R)-piperid-2-yl]methyl 1H-indazol-5-ylcarbamate]	100 to 500 nM	278 nM
O=C(Nc1ccc2[nH]ncc2c1)O[C@@H](c1ccc(Cl)c(Cl)c1)[C@@H]1CCCCN1 [Ex 38b, (S)-(3,4-Dichlorophenyl)[(2S)-piperid-2-yl]methyl 1H-indazol-5-ylcarbamate]	100 to 500 nM	963 nM
O=C(Nc1ccc2[nH]ncc2c1)O[C@@H](c1cccc(Br)c1)[C@@H]1CCCCN1 [Ex 46]	100 to 500 nM	546 nM
